Measurements as given in US20210395239A1 (Hoffmann-La Roche Inc., priority 2018, published 2021).

Each molecule was assayed against T1, human TLR7 (Homo sapiens, UniProt Q9NYK1) (assay: HEK293-Blue-hTLR-7 cells assay (SEAP reporter, R848 stimulation)). Details: HEK293-Blue-hTLR7 cells, R848, 20 hrs; read-out: HEK/hTLR7 IC50.
T1 construct: host or cells: HEK293 (HEK-Blue hTLR7)
T1 sequence (Q9NYK1 27-1049): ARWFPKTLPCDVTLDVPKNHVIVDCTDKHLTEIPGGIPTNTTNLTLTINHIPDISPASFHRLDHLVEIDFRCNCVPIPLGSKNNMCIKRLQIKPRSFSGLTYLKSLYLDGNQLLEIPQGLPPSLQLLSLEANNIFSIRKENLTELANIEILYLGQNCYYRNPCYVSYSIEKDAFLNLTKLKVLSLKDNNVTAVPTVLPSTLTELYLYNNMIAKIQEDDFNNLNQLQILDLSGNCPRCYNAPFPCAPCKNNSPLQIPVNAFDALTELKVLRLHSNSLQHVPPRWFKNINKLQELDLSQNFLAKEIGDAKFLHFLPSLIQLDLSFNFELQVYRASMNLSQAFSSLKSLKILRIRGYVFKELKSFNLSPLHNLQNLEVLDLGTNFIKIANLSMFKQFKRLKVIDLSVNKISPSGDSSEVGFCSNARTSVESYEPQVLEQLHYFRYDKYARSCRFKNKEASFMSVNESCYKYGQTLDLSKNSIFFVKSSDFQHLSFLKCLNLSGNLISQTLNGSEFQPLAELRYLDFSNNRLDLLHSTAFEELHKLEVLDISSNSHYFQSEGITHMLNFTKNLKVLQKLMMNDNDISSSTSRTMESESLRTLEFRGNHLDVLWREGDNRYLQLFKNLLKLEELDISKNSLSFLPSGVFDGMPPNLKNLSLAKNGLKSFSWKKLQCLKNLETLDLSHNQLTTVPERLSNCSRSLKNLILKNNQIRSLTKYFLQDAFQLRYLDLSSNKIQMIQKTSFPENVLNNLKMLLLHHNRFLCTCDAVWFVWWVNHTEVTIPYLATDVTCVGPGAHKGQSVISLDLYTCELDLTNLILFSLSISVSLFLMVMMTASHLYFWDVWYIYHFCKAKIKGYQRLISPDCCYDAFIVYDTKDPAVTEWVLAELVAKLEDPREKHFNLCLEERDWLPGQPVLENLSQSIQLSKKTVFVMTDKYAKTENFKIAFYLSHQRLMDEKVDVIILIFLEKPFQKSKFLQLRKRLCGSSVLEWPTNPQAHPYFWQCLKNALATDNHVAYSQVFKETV
Assay type: cell-based
How it was run: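 HEK293-Blue-hTLR7 cells (NF-κB/AP-1-driven SEAP reporter) were stimulated with R848 alongside serially diluted compound at 1% final DMSO for 20 h at 37 °C. Supernatant SEAP was then developed with QUANTI-Blue for 2 h at 37 °C and absorbance read at 620–655 nm; antagonism is measured as reduced reporter signal.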

SMILES	IC50 [µM]
C[C@@H]1CN(c2ccc(C#N)n3ncc(F)c23)C[C@H](CN2CCN(c3ccc(N4C[C@H]5NCCO[C@@H]5C4)nc3)CC2)O1 [Example 168, 4-[(2S,6R)-2-[[4-[6-[(4aR,7aR)-3,4,4a,5,7,7a-hexahydro-2H-pyrrolo[3,4-b][1,4]oxazin-6-yl]-3-pyridyl]piperazin-1-yl]methyl]-6-methyl-morpholin-4-yl]-3-fluoro-pyrazolo[1,5-a]pyridine-7-carbonitrile]	0.02
C[C@@H]1CN(c2ccc(C#N)n3ncc(F)c23)C[C@H](CN2CCN(c3ccc(N4CC5(CNCCO5)C4)nc3)CC2)O1 [Example 169, 3-fluoro-4-[(2R,6S)-2-methyl-6-[[4-[6-(5-oxa-2,8-diazaspiro[3.5]nonan-2-yl)-3-pyridyl]piperazin-1-yl]methyl]morpholin-4-yl]pyrazolo[1,5-a]pyridine-7-carbonitrile]	0.009
C[C@@H]1CN(c2ccc(C#N)n3ncc(F)c23)C[C@H](CN2CCN(c3ccc(N4CC5(CN(C)C5)C4)nc3)CC2)O1 [Example 170, 3-fluoro-4-[(2R,6S)-2-methyl-6-[[4-[6-(6-methyl-2,6-diazaspiro[3.3]heptan-2-yl)-3-pyridyl]piperazin-1-yl]methyl]morpholin-4-yl]pyrazolo[1,5-a]pyridine-7-carbonitrile]	0.006
C[C@@H]1CN(c2cc(=O)n(C)c3ncccc23)C[C@H](CN2CC(c3ccc(N4CCNCC4)cc3)C2)O1 [Example 171, 1-methyl-4-[(2R,6S)-2-methyl-6-[[3-(4-piperazin-1-ylphenyl)azetidin-1-yl]methyl]morpholin-4-yl]-1,8-naphthyridin-2-one]	0.038
C[C@@H]1CN(c2cc(=O)n(C)c3ncccc23)C[C@H](CN2CC(c3ccc(N4CC5(CNCCO5)C4)cc3)C2)O1 [Example 173, 1-methyl-4-[(2R,6S)-2-methyl-6-[[3-[4-(5-oxa-2,8-diazaspiro[3.5]nonan-2-yl)phenyl]azetidin-1-yl]methyl]morpholin-4-yl]-1,8-naphthyridin-2-one]	0.029
C[C@@H]1CN(c2ccc(C#N)n3ncc(F)c23)C[C@H](CN2CCN(c3ccc(N4CC[C@@H](N)[C@H](F)C4)nc3)CC2)O1 [Example 175, 4-[(2S,6R)-2-[[4-[6-[(3R,4R)-4-amino-3-fluoro-1-piperidyl]-3-pyridyl]piperazin-1-yl]methyl]-6-methyl-morpholin-4-yl]-3-fluoro-pyrazolo[1,5-a]pyridine-7-carbonitrile]	0.01
C[C@@H]1CN(c2cc(=O)n(C)c3ncccc23)C[C@H](CN2CC(c3ccc(N4CC(C)(N)C4)cc3)C2)O1 [Example 176, 4-[(2S,6R)-2-[[3-[4-(3-amino-3-methyl-azetidin-1-yl)phenyl]azetidin-1-yl]methyl]-6-methyl-morpholin-4-yl]-1-methyl-1,8-naphthyridin-2-one]	0.036
C[C@@H]1CN(c2ccc(C#N)n3ncc(F)c23)C[C@H](CN2CCN(c3ccc([C@@H]4CNCCO4)cc3)CC2)O1 [Example 177, 3-fluoro-4-[(2R,6S)-2-methyl-6-[[4-[4-[(2R)-morpholin-2-yl]phenyl]piperazin-1-yl]methyl]morpholin-4-yl]pyrazolo[1,5-a]pyridine-7-carbonitrile]	0.016
C[C@@H]1CN(c2ccc(C#N)n3ncc(F)c23)C[C@H](CN2CCN(c3ccc(N4CCOC5(CNC5)C4)nc3)CC2)O1 [Example 178, 3-fluoro-4-[(2R,6S)-2-methyl-6-[[4-[6-(5-oxa-2,8-diazaspiro[3.5]nonan-8-yl)-3-pyridyl]piperazin-1-yl]methyl]morpholin-4-yl]pyrazolo[1,5-a]pyridine-7-carbonitrile]	0.038
C[C@@H]1CN(c2ccc(C#N)n3ncc(F)c23)C[C@H](CN2CCN(c3ccc(N4CC5(CCN5)C4)nc3)CC2)O1 [Example 179, 4-[(2S,6R)-2-[[4-[6-(1,6-diazaspiro[3.3]heptan-6-yl)-3-pyridyl]piperazin-1-yl]methyl]-6-methyl-morpholin-4-yl]-3-fluoro-pyrazolo[1,5-a]pyridine-7-carbonitrile]	0.03

The remaining lines, values ahead:

IC50 [µM]	SMILES
0.053	C[C@@H]1CN(c2cc(=O)n(C)c3ncccc23)C[C@H](CN2CC(c3ccc(N4CC5(CN(C)C5)C4)cc3)C2)O1 [Example 180, 1-methyl-4-[(2R,6S)-2-methyl-6-[[3-[4-(6-methyl-2,6-diazaspiro[3.3]heptan-2-yl)phenyl]azetidin-1-yl]methyl]morpholin-4-yl]-1,8-naphthyridin-2-one]
0.026	C[C@@H]1CN(c2cc(=O)n(C)c3ncccc23)C[C@H](CN2CC(c3ccc(N4C[C@H]5NCCO[C@@H]5C4)cc3)C2)O1 [Example 182, 4-[(2S,6R)-2-[[3-[4-[(4aR,7aR)-3,4,4a,5,7,7a-hexahydro-2H-pyrrolo[3,4-b][1,4]oxazin-6-yl]phenyl]azetidin-1-yl]methyl]-6-methyl-morpholin-4-yl]-1-methyl-1,8-naphthyridin-2-one]
0.023	C[C@@H]1CN(c2ccc(C#N)n3ncc(F)c23)C[C@H](CN2CCN(c3ccc([C@@H]4CNCCO4)c(F)c3)CC2)O1 [Example 184, 3-fluoro-4-[(2S,6R)-2-[[4-[3-fluoro-4-[(2R)-morpholin-2-yl]phenyl]piperazin-1-yl]methyl]-6-methyl-morpholin-4-yl]pyrazolo[1,5-a]pyridine-7-carbonitrile]
0.039	C[C@@H]1CN(c2ccc(C#N)n3ncc(F)c23)C[C@H](CN2CCN(c3ccc(C4(C)CNCCO4)cc3)CC2)O1 (stereo partly drawn) [Example 185, 3-fluoro-4-[(2R,6S)-2-methyl-6-[[4-[4-(2-methylmorpholin-2-yl)phenyl]piperazin-1-yl]methyl]morpholin-4-yl]pyrazolo[1,5-a]pyridine-7-carbonitrile]
0.018	C[C@@H]1CN(c2ccc(C#N)n3ncc(F)c23)C[C@H](CN2CCN(c3ccc(C[C@@H]4CNCCO4)cc3)CC2)O1 [Example 186, 3-fluoro-4-[(2R,6S)-2-methyl-6-[[4-[4-[[(2R)-morpholin-2-yl]methyl]phenyl]piperazin-1-yl]methyl]morpholin-4-yl]pyrazolo[1,5-a]pyridine-7-carbonitrile]
